Reference: patent publication US11964979B2, “Camsylate salts of triazolopyrazine derivatives” (ABION Inc., priority 2022, dated 2024)
Converted amounts (≈) assume the structure as drawn. “And” between values parts separate entries of the source, which are not always exact repeats. Identical values can stand only once. Like-named read-outs stand apart in the source and are kept apart here. Values belong to the compound of their own block, whether it stands above or below them.

Assays:
[1] = Thermal stability study in solution (LCMS); assay type: physicochemical; conditions: for Area % (LCMS): approx. 0.3 mg/mL
Method: A thermal stability study was performed on ABN-401 to investigate the chemical stability of the starting material in solution when exposed to elevated temperatures. Solutions of ABN-401 were prepared in acetone, 1,2-dimethoxyethane, and acetonitrile with a concentration of approximately 0.3 mg/mL. Solutions were left at RT for 1 hour and successively, two aliquots of each solution were taken and heated at 50° C. and 80° C. for one hour. All these solutions were analyzed by LCMS. Additionally, the samples kept at RT were remeasured by LCMS after 24 hours to check the chemical degradation over time.
Starting material characterization and purity assessment of the novel crystalline forms of the free base: • Method name: S19061_03.M • Sample: • Concentration: 0.3 mg/ml • Diluent: Acetonitrile

[2] = Physical and chemical stability study up to 2 years (XRPD, TGMS, HPLC)
[3] = Approximate solubility determination by adding aliquots of solvent; assay type: physicochemical; conditions: thermodynamic from solid
Method: The approximate solubility was determined by adding small aliquots of solvent (50 μL up to 1 mL, 100 μL above 1 mL) to the solid starting material until complete dissolution was observed or a maximum volume of 4 mL was reached. Afterwards the solvents were evaporated and obtained solids were analyzed by HT-XRPD.

[4] = 40° C./75% RH
[5] = DVS analysis (hygroscopicity); assay type: physicochemical
Method: Differences in hygroscopicity (moisture uptake) of the various forms of a solid material provided a measure of their relative stability at increasing relative humidity. Moisture sorption isotherms of small samples were obtained using a DVS-1 system from Surface Measurement Systems (London, UK); this instrument is suitable for use with as little as a few milligrams of sample, with an accuracy of 0.1 μg. The relative humidity was varied during sorption-desorption-sorption (40-95-0-40% RH) at a constant temperature of 25° C., typically with a hold time of 60 minutes per step (10% relative humidity step). At the end of the DVS experiment the sample was measured by XRPD.
The hygroscopicity was classified according to the European Pharmacopoeia Hygroscopicity classification.

Area % (LCMS) ([1]; 1,2-dimethoxyethane solution, 1 h/50° C.): 98.6%
Area % (LCMS) ([1]; 1,2-dimethoxyethane solution, 1 h/80° C.): 97.7%
Area % (LCMS) ([1]; 1,2-dimethoxyethane solution, 1 h/RT): 99.0%
Area % (LCMS) ([1]; 1,2-dimethoxyethane solution, 24 h/RT): 98.8%
Area % (LCMS) ([1]; ACN solution, 1 h/50° C.): 99.0%
Area % (LCMS) ([1]; ACN solution, 1 h/80° C.): 98.7%
Area % (LCMS) ([1]; ACN solution, 1 h/RT): 99.0%
Area % (LCMS) ([1]; ACN solution, 24 h/RT): 98.1%
Area % (LCMS) ([1]; Acetone solution, 1 h/50° C.): 99.0%
Area % (LCMS) ([1]; Acetone solution, 1 h/80° C.): 99.0%
Area % (LCMS) ([1]; Acetone solution, 1 h/RT): 98.8%
Area % (LCMS) ([1]; Acetone solution, 24 h/RT): 98.5%
Mass loss attributed to water (TGA/TGMS) ([2]; 25° C./60% RH for 1 month): 3.7%
Mass loss attributed to water (TGA/TGMS) ([2]; 25° C./60% RH for 3 months): 4.1%
Mass loss attributed to water (TGA/TGMS) ([2]; 25° C./60% RH for 15 months): 3.3%
API chemical purity (area %) ([2]; 25° C./60% RH for 24 months): 87.2%
Mass loss attributed to water (TGA/TGMS) ([2]; 25° C./60% RH for 24 months): 5.3%
Mass loss attributed to water (TGA/TGMS) ([2]; 40° C./75% RH for 1 month): 4.0%
Mass loss attributed to water (TGA/TGMS) ([2]; 40° C./75% RH for 3 months): 4.4%
Mass loss attributed to water (TGA/TGMS) ([2]; 40° C./75% RH for 15 months): 3.7%
API chemical purity (area %) ([2]; 40° C./75% RH for 24 months): 90.7%
Mass loss attributed to water (TGA/TGMS) ([2]; 40° C./75% RH for 24 months): 5.2%
solubility ([3]; organic solvent or mixture, 1,2-Dimethoxyethane (SAS6)): 12.7 to 13.8 mg/mL (≈ 22.4 to 24.4 mM)
solubility ([3]; organic solvent or mixture, 1,4-Dioxane (SAS4)): > 199 mg/mL
solubility ([3]; organic solvent or mixture, Acetone (SAS1)): 22.1 to 25.6 mg/mL (≈ 39 to 45.2 mM)
solubility ([3]; organic solvent or mixture, Chloroform (SAS3)): > 311 mg/mL
solubility ([3]; organic solvent or mixture, Ethyl acetate (SAS5)): 4.4 to 4.6 mg/mL (≈ 7.76 to 8.12 mM)
solubility ([3]; organic solvent or mixture, Isopropanol (SAS7)): < 2.7 mg/mL
solubility ([3]; organic solvent or mixture, Methanol (SAS8)): < 2.9 mg/mL
solubility ([3]; organic solvent or mixture, Tetrahydrofuran (SAS9)): > 181 mg/mL
solubility ([3]; Water (SAS10)): < 3.1 mg/mL
Structure (SMILES): CN1CCN(Cc2ccc(-c3cnc(N4CCOC(Cn5nnc6ncc(-c7cnn(C)c7)nc65)C4)nc3)cc2)CC1 (stereo not shown) [ABN-401]
Chemical degradation in solution ([1]; samples kept at 50° C. and 80° C. for one hour, acetone, 1,2-dimethoxyethane, acetonitrile): No significant chemical degradation was observed
Chemical degradation (LCMS) ([2]; 24 months at 25° C./60% RH and at 40° C./75% RH): chemical degradation is occurring at both conditions

Structure (SMILES): CC1(C)[C@@H]2CC[C@]1(CS(=O)(=O)O)C(=O)C2.CN1CCN(Cc2ccc(-c3cnc(N4CCO[C@H](Cn5nnc6ncc(-c7cnn(C)c7)nc65)C4)nc3)cc2)CC1 [Camp4]
Form after AAC ([4]; Exp. ID GEN16, Chloroform): Camp4
Form after AAC ([4]; Exp. ID GEN19, Heptane): Camp4
Form after AAC ([4]; Exp. ID GEN23, IPA/Water (97/3), lc = low crystalline): lc
Form after AAC ([4]; Exp. ID GEN25, 1,4-Dioxane/Water (96/4)): Camp4
Form after AAC ([4]; Exp. ID GEN26, THF/Water (95/5)): Camp4

Structure (SMILES): CC1(C)[C@@H]2CC[C@]1(CS(=O)(=O)O)C(=O)C2.CN1CCN(Cc2ccc(-c3cnc(N4CCO[C@H](Cn5nnc6ncc(-c7cnn(C)c7)nc65)C4)nc3)cc2)CC1 [Camp5]
Form after AAC ([4]; Exp. ID GEN21, THF): Camp2

Structure (SMILES): CC1(C)[C@@H]2CC[C@]1(CS(=O)(=O)O)C(=O)C2.CN1CCN(Cc2ccc(-c3cnc(N4CCO[C@H](Cn5nnc6ncc(-c7cnn(C)c7)nc65)C4)nc3)cc2)CC1 [Camp1]
Form after AAC ([4]; Exp. ID SSm14, Acetone, API:CI 1:1): Camp1
Form after AAC ([4]; Exp. ID SSm37, 1,2-Dimethoxyethane, API:CI 1:1): Camp1

Structure (SMILES): CC1(C)[C@@H]2CC[C@]1(CS(=O)(=O)O)C(=O)C2.CN1CCN(Cc2ccc(-c3cnc(N4CCO[C@H](Cn5nnc6ncc(-c7cnn(C)c7)nc65)C4)nc3)cc2)CC1 (stereo in doubt) [Camp2]
API chemical purity (area %) ([2]; 25° C./60% RH for 1 month): 99.8%
Mass loss attributed to water (TGA/TGMS) ([2]; 25° C./60% RH for 1 month): 1.6%
Solid form by HT-XRPD after exposure ([2]; 25° C./60% RH for 1 month (GEN50)): Camp2
API chemical purity (area %) ([2]; 25° C./60% RH for 3 months): 99.7%
Mass loss attributed to water (TGA/TGMS) ([2]; 25° C./60% RH for 3 months): 1.6%
Solid form by HT-XRPD after exposure ([2]; 25° C./60% RH for 3 months (GEN51)): Camp2
API chemical purity (area %) ([2]; 25° C./60% RH for 15 months): 99.5% and 97.3%
Mass loss attributed to water (TGA/TGMS) ([2]; 25° C./60% RH for 15 months): 1.6%
Solid form by HT-XRPD after exposure ([2]; 25° C./60% RH for 15 months (GEN52)): Camp2
API chemical purity (area %) ([2]; 25° C./60% RH for 24 months): 100%
Mass loss attributed to water (TGA/TGMS) ([2]; 25° C./60% RH for 24 months): 1.9%
Solid form by HT-XRPD after exposure ([2]; 25° C./60% RH for 24 months (GEN53)): Camp2
Solid form conversion (HT-XRPD) ([2]; 25° C./60% RH up to 24 months): no solid form conversion occurred
Solid form conversion (HT-XRPD) ([2]; 40° C./75% RH): solid form conversions were observed after 3 months
API chemical purity (area %) ([2]; 40° C./75% RH for 1 month): 99.8%
Mass loss attributed to water (TGA/TGMS) ([2]; 40° C./75% RH for 1 month): 1.8%
Solid form by HT-XRPD after exposure ([2]; 40° C./75% RH for 1 month (GEN54)): Camp2
API chemical purity (area %) ([2]; 40° C./75% RH for 3 months): 99.3%
Mass loss attributed to water (TGA/TGMS) ([2]; 40° C./75% RH for 3 months): 7.1%
Solid form by HT-XRPD after exposure ([2]; 40° C./75% RH for 3 months (GEN55)): Camp4
API chemical purity (area %) ([2]; 40° C./75% RH for 15 months): 93.7%
Mass loss attributed to water (TGA/TGMS) ([2]; 40° C./75% RH for 15 months): 6.9%
Solid form by HT-XRPD after exposure ([2]; 40° C./75% RH for 15 months (GEN56)): Camp4
API chemical purity (area %) ([2]; 40° C./75% RH for 24 months): 88.6%
Mass loss attributed to water (TGA/TGMS) ([2]; 40° C./75% RH for 24 months): 6.7%
Solid form by HT-XRPD after exposure ([2]; 40° C./75% RH for 24 months (GEN57), E = Form E of the free base): Camp3+E
Form after AAC ([4]; Exp. ID GEN17, Ethanol): Camp2
Form after AAC ([4]; Exp. ID SSm60, ACN, API:CI 1:1): Camp2
Form identified by HT-XRPD in the solid recovered after DVS [5]: Camp4
Change in mass at 80% RH ([5]; 25° C.): 1.4%
Hygroscopicity (European Pharmacopeia Hygroscopicity classification) ([5]; based on change in mass at 80% RH): slightly hygroscopic
Water vapor uptake ([5]; first sorption half-cycle, at 95% RH, 25° C.): 15.6%
Change in mass ([5]; first sorption half-cycle, range 40→95% RH, 25° C.): 14.1%
Change in mass ([5]; last sorption half-cycle, range 0→40% RH, 25° C.): 6.6%
Reversibility of water uptake ([5]; sorption-desorption-sorption 40-95-0-40% RH): irreversible
